One test concerns the target PI3Kδ (Homo sapiens (Human), UniProt O00329). Briefly: PI3K Enzyme Assay (Example A2, [γ-33P]ATP filter plate). Particulars: 1000 μM ATP, 50 μM PIP2. The format is biochemical. As to the method:
PI3K isoforms α, β, δ and γ are purchased from Millipore (Bedford, Mass.).
Inhibitors are first diluted serially in DMSO and added to the plate wells before the addition of other reaction components. The final concentration of DMSO in the assay is 0.5%. The PI3K assays are carried out at room temperature in 20 mM MOPS, pH 6.7, 10 mM MgCl2, 5 mM DTT and CHAPS 0.03%. The reaction mixture is prepared containing 50 μM PIP2, kinase and varying concentration of inhibitors. Reactions are initiated by the addition of ATP containing 2.2 μCi [γ-^33P]ATP to a final concentration of 1000 μM. […] After drying by aspiration and blotting, the plate is air dried in an incubator at 37° C. overnight. Packard TopCount adapter (Millipore) is then attached to the plate followed with addition of 120 μL Microscint 20 scintillation cocktail (Perkin Elmer) in each well. […] IC50 determination is performed by fitting the curve of percent control activity versus the log of the inhibitor concentration using the GraphPad Prism 3.0 software.

For test [1], the system named is Pfeiffer cell line (diffuse large B cell lymphoma). Briefly: Pfeiffer Cell Proliferation Assay (Example B2). The format is cell-based, human. The protocol:
Pfeiffer cell line (diffuse large B cell lymphoma) are purchased from ATCC (Manassas, Va.) and maintained in the culture medium recommended (RPMI and 10% FBS). To measure the anti-proliferation activity of the compounds, the Pfeiffer cells are plated with the culture medium (2×10^3 cells well per […]) into 96-well ultra-low binding plates (Corning, Corning, N.Y.), in the presence or absence of a concentration range of test compounds. After 3-4 days, [^3H]-thymidine (1 μCi/well) (PerkinElmer, Boston, Mass.) in PBS is then added to the cell culture for an additional 12 hours before the incorporated radioactivity is separated by filtration with water through GF/B filters (Packard Bioscience, Meriden, Conn.) and measured by liquid scintillation counting with a TopCount (Packard Bioscience).

Test [2] relates to Pfeiffer human tumor xenograft model of diffuse large B-cell lymphoma. Briefly: Pfeiffer Model of Lymphoma (Example D). To be noted: SCID mice. The class given is in vivo. The protocol:
Female SCID mice, (5 to 8 weeks of age, Charles River Laboratories, Wilmington, Mass.) were inoculated with 1×10^7 tumor cells (Pfeiffer, ATCC #CRL-2632, Manassas, Va.) and matrigel (BD Biosciences #354234) in 0.2 mL sterile saline. The inoculation was performed subcutaneously on the flank. Tumor tissue fragments (approximately 3 mm×3 mm) were collected 3 to 6 weeks after the inoculation of cultured cells and implanted subcutaneously in lieu of cellular inoculation. Tissue fragments were implanted as solid pieces using blunt-tip forceps. The treatment of tumor bearing mice was started 15 to 25 days after tumor inoculation, depending upon the tumor size. Animals were sorted to obtain roughly equivalent mean tumor volumes in each group. Minimum mean tumor volume in all groups was 150 mm3 on the first day of treatment and groups consisted of 7 animals. Experimental therapeutic agent, Example 347, was administered to mice orally (PO). Treatment frequency was 2 times daily for a minimum of 14 days for efficacy. The size of subcutaneous tumors was measured 2 to 3 times weekly using a digital caliper. The tumor volume was calculated by measuring the tumor in 2 dimensions and utilizing the equation: Volume=[Length×(Width2)]/2; where the larger number was length, and the smaller number width. If multiple tumors were formed, the final volume was the sum of the individual tumors subject to the same equation: eg, 2 tumors; Volume={[L1×(W1)2]/2}+{[L2×(W2)2]/2}. Effects on tumor growth were reported as percent tumor growth inhibition (% TGI). Percent TGI was calculated with the equation: (1−(Tx vol./control vol.))*100, where control volume was the vehicle or untreated tumor volume on a given day, and Tx volume was any treatment group tumor volume on that same day. Statistical differences between treatment and vehicle controls were assessed using ANOVA: Single Factor test.

The target in another test is PI3Kδ (p110δ/p85α) (Homo sapiens (Human), UniProt O00329). As to the kind of experiment: PI3Kδ Scintillation Proximity Assay (Example A3). The format is biochemical. Particulars: 20 μM ATP, 20 μM PIP2, 4 nM PI3Kδ, read-out: PI3Kδ SPA IC50. The gist of the method:
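SPA with 4 nM p110δ/p85α, 20 μM PIP2, 20 μM ATP plus [γ-^33P]ATP, in 20 mM MOPS pH 6.7, 10 mM MgCl2, 5 mM DTT, 0.03% CHAPS, 0.5% DMSO, room temperature. Stopped with EDTA/ATP, WGA SPA beads, overnight shaking, scintillation counting. IC50 from % control activity vs log concentration.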
(In a scintillation proximity assay essentially only radioactivity close to the scintillant gives light.)

Each structure is given as a SMILES string. Counter-ions that a name gives are not always drawn.

PI3Kδ (p110δ/p85α), sequence (O00329 whole entry): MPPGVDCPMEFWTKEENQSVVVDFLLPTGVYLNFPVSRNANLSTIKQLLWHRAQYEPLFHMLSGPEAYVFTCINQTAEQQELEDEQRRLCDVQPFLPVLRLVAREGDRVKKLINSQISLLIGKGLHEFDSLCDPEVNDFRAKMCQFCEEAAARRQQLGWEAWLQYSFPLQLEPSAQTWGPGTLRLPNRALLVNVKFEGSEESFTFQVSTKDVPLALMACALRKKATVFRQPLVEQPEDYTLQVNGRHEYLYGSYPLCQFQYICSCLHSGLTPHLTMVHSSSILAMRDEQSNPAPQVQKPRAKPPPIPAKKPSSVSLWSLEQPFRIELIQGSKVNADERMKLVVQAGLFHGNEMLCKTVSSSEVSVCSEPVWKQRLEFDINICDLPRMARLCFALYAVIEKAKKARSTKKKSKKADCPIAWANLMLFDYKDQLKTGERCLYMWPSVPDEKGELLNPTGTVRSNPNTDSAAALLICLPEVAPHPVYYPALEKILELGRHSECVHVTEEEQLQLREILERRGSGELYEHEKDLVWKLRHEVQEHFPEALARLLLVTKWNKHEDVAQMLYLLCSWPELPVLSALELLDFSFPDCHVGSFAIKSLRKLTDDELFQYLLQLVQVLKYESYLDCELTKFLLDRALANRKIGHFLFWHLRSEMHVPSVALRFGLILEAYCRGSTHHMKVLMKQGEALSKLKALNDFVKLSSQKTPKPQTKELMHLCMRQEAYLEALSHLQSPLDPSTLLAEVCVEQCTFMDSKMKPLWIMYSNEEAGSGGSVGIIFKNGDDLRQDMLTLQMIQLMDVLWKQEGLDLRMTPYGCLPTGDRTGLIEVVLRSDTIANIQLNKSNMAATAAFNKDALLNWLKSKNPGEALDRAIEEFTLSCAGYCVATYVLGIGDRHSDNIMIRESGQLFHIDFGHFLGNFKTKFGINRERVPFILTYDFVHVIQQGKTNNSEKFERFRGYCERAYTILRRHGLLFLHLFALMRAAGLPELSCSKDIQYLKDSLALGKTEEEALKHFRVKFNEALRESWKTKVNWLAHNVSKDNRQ
PI3Kδ (p110δ/p85α), sequence (P27986 whole entry partner): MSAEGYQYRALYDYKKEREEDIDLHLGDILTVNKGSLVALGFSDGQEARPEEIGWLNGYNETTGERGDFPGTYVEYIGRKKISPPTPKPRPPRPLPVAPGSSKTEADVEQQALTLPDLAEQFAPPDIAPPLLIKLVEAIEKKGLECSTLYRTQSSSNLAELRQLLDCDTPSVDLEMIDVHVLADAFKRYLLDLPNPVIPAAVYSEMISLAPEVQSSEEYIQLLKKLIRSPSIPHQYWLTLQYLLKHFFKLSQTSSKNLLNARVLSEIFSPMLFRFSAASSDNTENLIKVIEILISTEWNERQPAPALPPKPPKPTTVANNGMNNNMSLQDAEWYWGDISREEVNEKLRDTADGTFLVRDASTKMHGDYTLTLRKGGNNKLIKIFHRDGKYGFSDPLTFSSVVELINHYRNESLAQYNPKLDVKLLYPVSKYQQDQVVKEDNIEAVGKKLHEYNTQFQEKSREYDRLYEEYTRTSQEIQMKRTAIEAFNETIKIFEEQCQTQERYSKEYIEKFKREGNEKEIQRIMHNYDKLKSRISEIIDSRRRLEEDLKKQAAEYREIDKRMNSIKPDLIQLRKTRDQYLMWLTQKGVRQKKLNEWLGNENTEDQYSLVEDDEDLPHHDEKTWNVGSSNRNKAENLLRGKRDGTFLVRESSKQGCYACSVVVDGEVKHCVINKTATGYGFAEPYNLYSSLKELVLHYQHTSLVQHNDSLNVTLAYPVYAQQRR
PI3Kδ, sequence (O00329 whole entry, canonical isoform): as the sequence (O00329 whole entry) above
PI3Kδ, sequence (P27986 whole entry partner, canonical isoform): as the sequence (P27986 whole entry partner) above

The term IC50 denotes the point on the concentration scale where inhibition reaches its midpoint. At PI3Kδ, `COc1c([C@@H](C)n2nc(C)c3c(N)ncnc32)cc(Cl)c(C#N)c1C1CN(C[C@H](C)O)C1` [Example 361, 4-((R)-1-(4-amino-3-methyl-1H-pyrazolo[3,4-d]pyrimidin-1-yl)ethyl)-6-chloro-2-(1-((S)-2-hydroxypropyl)azetidin-3-yl)-3-methoxybenzonitrile] registered an IC50 of over 500 nM.

With `CCOc1c(C(C)n2nc(C)c3c(N)ncnc32)cc(Cl)c(F)c1C1CNC(=O)C1` (single isomer, unassigned) [Example 347, 4-{3-[1-(4-amino-3-methyl-1H-pyrazolo[3,4-d]pyrimidin-1-yl)ethyl]-5-chloro-2-ethoxy-6-fluorophenyl}pyrrolidin-2-one], in test [1], the “anti-proliferative effects in vitro on Pfeiffer cancer cells” value was “sensitive”. Further, the “percent tumor growth inhibition” value came out at 22% in test [2] (0.3 mg/kg oral twice daily for 14 days), 24% in test [2] (1 mg/kg oral twice daily for 14 days), 36% in test [2] (3 mg/kg oral twice daily for 14 days) and 58% in test [2] (10 mg/kg oral twice daily for 14 days).

As to `CCOc1c(C(C)n2nc(C)c3c(N)ncnc32)cc(Cl)c(C)c1C1CN(C[C@H](C)O)C1` (stereo partly drawn) [Example 96, (2S)-1-(3-{3-[1-(4-Amino-3-methyl-1H-pyrazolo[3,4-d]pyrimidin-1-yl)ethyl]-5-chloro-2-ethoxy-6-methylphenyl}azetidin-1-yl)propan-2-ol bis(trifluoroacetate)], the half-inhibitory concentration (IC50) at PI3Kδ (p110δ/p85α) is under 10 nM.

For the molecule `CCOc1c(C(C)n2nc(C)c3c(N)ncnc32)cc(Cl)c(F)c1C1CN(CC(F)(F)F)C1` (racemic) [Example 141, 1-(1-{5-Chloro-2-ethoxy-4-fluoro-3-[1-(2,2,2-trifluoroethyl)azetidin-3-yl]phenyl}ethyl)-3-methyl-1H-pyrazolo[3,4-d]pyrimidin-4-amine], on PI3Kδ (p110δ/p85α), the IC50 was under 10 nM.

With `CCOc1c(C(C)n2nc(C)c3c(N)ncnc32)cc(Cl)c(C)c1-c1ccc(C(=O)N(C)C)cn1` (centres unmarked) [Example 208, 6-{3-[1-(4-Amino-3-methyl-1H-pyrazolo[3,4-d]pyrimidin-1-yl)ethyl]-5-chloro-2-ethoxy-6-methylphenyl}-N,N-dimethylnicotinamide bis(trifluoroacetate)], the IC50 at PI3Kδ (p110δ/p85α) is under 10 nM.

In the case of `COc1c(C(C)n2nc(C)c3c(N)ncnc32)cc(Cl)c(C)c1-c1cnc(N)nc1` (single isomer, unassigned) [Example 169, 1-(1-(3-(2-aminopyrimidin-5-yl)-5-chloro-2-methoxy-4-methylphenyl)ethyl)-3-methyl-1H-pyrazolo[3,4-d]pyrimidin-4-amine], the half-inhibitory concentration (IC50) at PI3Kδ (p110δ/p85α) is under 10 nM.

For the molecule `CCOc1c(C(C)n2nc(C)c3c(N)ncnc32)cc(Cl)c(C)c1C1CNC(=O)C1` (centres unmarked) [Example 310, 4-{3-[1-(4-amino-3-methyl-1H-pyrazolo[3,4-d]pyrimidin-1-yl)ethyl]-5-chloro-2-ethoxy-6-methylphenyl}pyrrolidin-2-one], the IC50 at PI3Kδ (p110δ/p85α) was under 10 nM.

In the case of `CCOc1c(C(C)n2nc(C)c3c(N)ncnc32)cc(Cl)c(C)c1-c1ccc(C(=O)N(C)C)nc1` (centres unmarked) [Example 14, 5-{3-[1-(4-Amino-3-methyl-1H-pyrazolo[3,4-d]pyrimidin-1-yl)ethyl]-5-chloro-2-ethoxy-6-methylphenyl}-N,N-dimethylpyridine-2-carboxamide bis(trifluoroacetate)], the IC50 at PI3Kδ (p110δ/p85α) was under 10 nM.

For the molecule `COc1c(C(C)n2nc(C)c3c(N)ncnc32)cc(Cl)c(C)c1C1CN(C(=O)[C@@H](C)O)C1` (single isomer, unassigned) [Example 121, trifluoroacetate], the IC50 on PI3Kδ (p110δ/p85α) is under 10 nM.

For the molecule `COc1c(C(C)n2nc(C)c3c(N)ncnc32)cc(Cl)c(C#N)c1C1CN(C(N)=O)C1` (single isomer, unassigned) [Example 293, 3-{3-[1-(4-Amino-3-methyl-1H-pyrazolo[3,4-d]pyrimidin-1-yl)ethyl]-5-chloro-6-cyano-2-methoxyphenyl}azetidine-1-carboxamide], the IC50 at PI3Kδ (p110δ/p85α) was under 10 nM.

Values taken from patent US9932341B2, “Use of pyrazolopyrimidine derivatives for the treatment of PI3K-delta related disorders” (Incyte Corporation, priority 2013, dated 2018).
